Experimental data: patent US7700765B2, “DNA minor groove binding compounds” (University of Strathclyde, priority 2001, dated 2010)

Tests used:
[1] = tested on: mixture of double-stranded DNA oligonucleotides AAATTATATTAT (SEQ ID NO:1) and GGACTAGTCG (SEQ ID NO:4); experiment: Capillary electrophoresis competitive binding study; details: AAATTATATTAT dodecamer versus GGACTAGTCG decamer
Description: (§1) Capillary electrophoresis was used to study of ligand-DNA binding (see: (i) Hamdan, I. I.; Skellern, G. G.; and Waigh, R. D. “Separation of pd(GC)12 from pd(AT)12 by free solution capillary electrophoresis”, J. Cromatogr. A. 806, 165-168 (1998); (ii) Hamdan, I. I.; Skellern, G. G.; and Waigh, R. D. “Use of capillary electrophoresis in the study of ligand-DNA interactions”, Nucleic Acids Research 26, 3053-3058 (1998); (iii) Hamdan, I. I.; Skellern, G. G.; and Waigh, R. D. “Ligand binding to oligonucleotides” Methods in Molecular Biology, Vol. 163, “Capillary Electrophoresis of Nucleic acids”, Vol 2, pages 379-391, K. R. Mitchelson and J. Cheng Eds., Humana Press, New Jersey, (2000)).
(§2) Typically, ligand binding results in a change in migration time of the DNA and sometimes a change in peak shape.
(§3) The following are shown in FIGS. 1-6: • (a) the experimental conditions, including the DNA sequence(s); • (b) the result of sequential addition of ligand; and • (c) the structure of the ligand being investigated. Key to FIGS. 1 to 6: • r0=electropherogram in the absence of drug • rX=(where X is 0.5, 1, 2, 3 or 4) electropherogram in the presence of drug, where the drug:DNA ratio (in terms of concentration) is X:1
This ratio corresponds to the binding ratio. […]

[2] = tested on: NFκB protein-DNA complexes; experiment: NFκB DNA-binding assay (gel shift) with macrophage nuclear extracts; type: biochemical, Murine; details: 1 μL of a 1 mM solution, final volume 10 μL; nuclear protein from macrophages exposed to LPS
Protocol: Murine macrophages (obtained and cultured as described in Cell. Signal. 11(7), 491 (1999), hereinafter referred to as “Reference 1”, the disclosures of which document are hereby incorporated by reference) were exposed to vehicle (see Reference 1) or 1 μg/mL lipopolysaccharide (LPS; the active component of gram-negative endotoxin and a strong activator of the Nuclear Factor kappa B (NFκB) pathway; the particular LPS being obtained from Salmonella minnesota) for 1 hour and nuclear extracts prepared by standard procedures (see Brit. J. Pharmacol. 134, 393 (2001), hereinafter referred to as “Reference 2”, the disclosures of which document are hereby incorporated by reference).
Aliquots of compounds (1 μL of a 1 mM solution) were incubated with 1 μL (0.035 pmol) of a ^32P-labelled 20 bp double-stranded DNA oligonucleotide (representing the consensus binding sequence for NFκB proteins (see Reference 2 and Brit. J. Pharmacol. 134, 1629-1638 (2001), the disclosures of which latter document are hereby incorporated by reference)) for 30 min at room temperature. […] The formation of NFκB protein-DNA complexes and potential inhibition of complex formation in the presence of the above compounds was detected by autoradiography. […]

[3] = tested on: MS1 sequence (radio-labelled DNA, SEQ ID NO:6); experiment: DNA footprinting (DNase I); type: binding; details: concentration of 0.03 μM
Protocol: DNA footprinting is a well-established technique in which a section of radio-labelled DNA (SEQ ID NO:6) is incubated with a chemical or biological cleaving agent, in the presence and absence of a putative binding ligand. Regions of ligand binding will show as blanks in the ‘ladder’. Knowing the DNA sequence, the binding sites can then be deduced, from the location of these blanks. The sequence shown in FIGS. 7 and 8 is MS1, which contains all possible four-base-pair binding sites. The procedure used in the footprinting experiments was analogous to that described in J. Med. Chem. 43, 3257 (2000), the disclosures of which document are hereby incorporated by reference. In an analogous manner to the procedure described in J. Med. Chem. 43, 3257 (2000), the MS1 sequence was labelled at the 3′-end with [α-^32P]dATP using reverse transcriptase. The agent used to cleave the radio-labelled DNA was DNase I. Bases that fall within the “footprint” of a compound are indicated by XX . . . XX underneath the sequence. The binding domain that has been confirmed by capillary electrophoresis is indicated by XX. XX.

[4] = tested on: double-stranded DNA decamer CGACTAGTCG (SEQ ID NO:3); experiment: Capillary electrophoresis ligand-DNA binding study; details: drug to DNA ratio up to 4:1
Description: as §2, §3
(§4) This ratio corresponds to the binding ratio.

[5] = tested on: double-stranded DNA oligonucleotide CCACTAGTGG (SEQ ID NO:5); experiment: Capillary electrophoresis ligand-DNA binding study; details: with CCACTAGTGG (SEQ ID NO:5)
Description: as §1, §2, §3, §4

N-[3-(Dimethylamino)propyl]-2-({[4-({[4-(formylamino)-1-methyl-1H-pyrrol-2-yl]carbonyl}amino)-1-methyl-1H-pyrrol-2-yl]carbonyl}amino)-5-isopropyl-1,3-thiazole-4-carboxamide [Example 3]
relative affinity in competitive binding [1]: greater affinity for the decamer ACTA sequence
effect on LPS-stimulated NFκB-DNA binding activity [2]: appeared to inhibit
footprint on MS1 sequence [3]: binding to only one site on the MS1 sequence
affinity for the sequence [4]: strong affinity
binding result [5]: identical with that achieved with the sequence in FIG. 3
